Experimental data: patent US20170119630A1, “BIPHASIC COMPOSITION FOR PERFUME AND PERSONAL CARE APPLICATIONS AND USES THEREOF” (Coty Inc., priority 2014, published 2017)

Columns and labels:
[1] = colorant; cited from earlier work
[2] = Single fragrance migration study in biphasic compositions, GC/MS analysis; type: physicochemical; settings: for Result in % based on GC/MS analysis, Regular EDT aromatics %: Regular EDT with Fragrance oil Giddy 11598/00; for migration between phases when the amount of water is increased: water ~7.4 wt % to ~27.25 wt %, FIG. 1, GC/MS
From the text: FIG. 1 has been obtained using GC/MS analytical tool. Depending primary on the log P of fragrances and/or secondary of the chemical families/functions of those fragrances, modification of the polarity will have the effect of pushing the fragrance in one preferred phase of the biphasic composition.
To determine the distribution of first fragrance and second fragrance in the biphasic composition three formulations (regular EDT, biphasic composition with low amount of water in the water-alcohol phase, biphasic composition with high amount of water in the water-alcohol phase) were tested and compared using GC/MS analysis and Expert evaluator.

[3] = Bi phase formula high amount of water in the bottom phase (total water ~27.24%)
[4] = Bi phase formula low amount of water in the bottom phase (total water ~7.4%)

| Compound | solubility (oil-soluble / water-soluble) [1] | Result in % based on GC/MS analysis, Lower phase aromatics % [2, 3] | Result in % based on GC/MS analysis, Upper phase aromatics % [2, 3] | Result in % based on GC/MS analysis, Lower phase aromatics % [2, 4] | Result in % based on GC/MS analysis, Upper phase aromatics % [2, 4] | Result in % based on GC/MS analysis, Regular EDT aromatics % [2] | migration between phases when the amount of water is increased [2] |
| --- | --- | --- | --- | --- | --- | --- | --- |
| O=C1c2ccccc2C(=O)C1c1ccc2ccccc2n1 [D&C Yellow No. 11] | oil-soluble |  |  |  |  |  |  |
| CC(CC=O)CCCC(C)(C)O (stereo not shown) [hydroxycitronelial] |  | 4.13% | 0.12% | 0.88% | 0.06% | 0.53% |  |
| C=CC(C)(O)CCC=C(C)CC (mixture of isomers) [ethyl linalol] |  | 28.40% | 0.83% | 6.86% | 1.11% | 4.39% | stays in the hydro-alcoholic phase |
| CC(=O)OC1CCCCC1C(C)(C)C (single isomer, unassigned) [agrumex major isomer, agrumex] |  | 0.16% | 0.47% | 0.40% | 0.45% | 0.41% |  |
| CCCCCCCCCCCCCC(=O)OC(C)C [Isopropyl Myristate IPM, Isopropyl Myristate] |  | 0.00% | 13.93% | 4.96% | 23.40% | 13.34% | migrate following the same rules in the oil phase |
| CC(C)CC1CC(C)(O)CCO1 (stereo not shown) [florosa] |  | 5.86% | 3.93% | 5.12% | 1.86% | 3.82% |  |
| CCCCCC1C(=O)CCC1CC(=O)OC (stereo not drawn) [hedione trans, hedione] |  | 26.10% | 11.94% | 18.40% | 6.64% | 13.28% |  |
| CC1COCc2cc3c(cc21)C(C)(C)C(C)C3(C)C (stereo not drawn) [galaxolide (main peak), galaxolide] |  | 1.64% | 22.92% | 15.47% | 26.53% | 20.25% | migrating in the oily phase |
| C=CC(C)(CCC=C(C)C)OC(C)=O (stereo not shown) [linalyl acetate] |  | 1.63% | 3.89% | 3.52% | 3.38% | 3.37% |  |
| O=C(O)c1nn(-c2ccc(S(=O)(=O)O)cc2)c(O)c1N=Nc1ccc(S(=O)(=O)O)cc1 [FD&C Yellow No. 5] | water-soluble |  |  |  |  |  |  |
| CC(C=O)Cc1ccc(C(C)(C)C)cc1 (stereo not shown) [lilial] |  | 2.43% | 4.18% | 4.90% | 2.70% | 3.92% |  |
| CC(C=O)Cc1ccc2c(c1)OCO2 (stereo not shown) [helional] |  | 4.10% | 0.91% | 2.03% | 0.40% | 1.32% |  |
| CCCCCCC(C=O)=Cc1ccccc1 [hexylcinnamic aid, hexylcinnamic aldehyde] |  | 0.46% | 1.67% | 1.65% | 1.43% | 1.54% | migrating in the oily phase |
